Experimental data as given in US11827690B2, “ApoC-II mimetic peptides” (THE UNITED STATES OF AMERICA, as represented by the …, priority 2017, dated 2023).
Entries after “also recorded” stand apart in the source; their conditions may differ.

Columns and labels:
[1] = target: T1, LPL inhibited by apoC-III (Bos taurus, UniProt P11151); assay: LPL activation assay with high TG human plasma as substrate and recombinant apoC-III as an inhibitor; assay type: biochemical; conditions: for effect on inhibition of LPL by apoC-III: high TG human plasma substrate
T1 sequence (P11151 29-478): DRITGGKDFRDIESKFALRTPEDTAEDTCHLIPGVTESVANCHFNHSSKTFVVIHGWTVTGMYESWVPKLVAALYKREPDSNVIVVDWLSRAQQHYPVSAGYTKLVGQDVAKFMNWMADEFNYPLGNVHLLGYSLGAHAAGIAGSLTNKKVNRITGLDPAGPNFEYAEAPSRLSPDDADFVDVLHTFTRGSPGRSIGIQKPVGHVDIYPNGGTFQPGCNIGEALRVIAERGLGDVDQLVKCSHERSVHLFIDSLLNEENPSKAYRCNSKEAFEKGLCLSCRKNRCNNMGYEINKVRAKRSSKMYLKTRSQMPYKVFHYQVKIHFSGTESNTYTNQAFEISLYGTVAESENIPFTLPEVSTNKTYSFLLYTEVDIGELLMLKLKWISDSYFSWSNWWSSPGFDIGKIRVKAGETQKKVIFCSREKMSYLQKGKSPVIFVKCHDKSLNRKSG
Description: LPL activity assay: 10 μL of Intralipid, human plasma sample, or mouse plasma sample was added in each well using repeater pipette. 10 μL (or 15 μL in the wells with no LPL control) of PBS and 10 μL of 1% BSA was added in each well using repeater pipette. 10 μL of peptides were added to corresponding wells in vertical triplicates (lowest concentration is on a left, highest is on the right). The plate was spun down at 1000 RPM for 10 seconds to mix and to remove the solutions from the wall of each well. The plate was put on ice and 5 μL of LPL was added using repeater pipette. The plate was spun down again at 1000 RPM for 10 seconds. The plate was covered and put back on ice for an incubation of 30 min. The plate was then moved to 37° C. and incubated for 1 hour.
Free fatty acids (NEFA) assay: 45 μL of 5 nmoL standard and 0 nmoL control (0.2% BSA) were added to corresponding wells. 225 μL of reagent A was added in each well using the reagent tray and 12-channel pipette. The plate was incubated for 10 min before 75 μL of reagent B was added to each well using the reagent tray and 12-channel pipette. The plate was not covered due to the high volume. The absorbance at 550 nm and 660 nm was measured.
LPL assay was performed using Intralipid, high TG human plasma (1:50 dilution), or apoC-III transgenic mouse plasma (1:50 dilution). When Intralipid was used as a substrate, 25 or 50 μM recombinant ApoC-III was added as an inhibitor. When the high TG human plasma was used as a substrate, 25 or 50 μM recombinant ApoC-III was added as an inhibitor with or without pre-incubation at 37° C. for 1 hour. An apoC-II mimetic peptide was added at various concentrations.

wild-type mice = assay: serum TG of wild-type mice after Intralipid injection with or without LPL inhibitor Triton WR1339; assay type: in vivo
Description: In some experiments, each animal received 20% Intralipid (FDA approved, Fresenius Kabi, Uppsala, Sweden) in a single dose either by oral gavage (using special sterile single-use non-toxic animal feeding needles) in a dose 10-20 μL/gram body weight (B.W.) (Tuzcu et al. Drug Chem Toxicol 37: 261-267, 2014; Kusminski et al. Nature Medicine 18: 1539-1549, 2012), or by intraperitoneal injection in a single bolus of 0.1-1.0 mL (Mahadero et al. American J Surgery 164: 45-50, 1992), or by intragastric administration of a dietetic commercially-available liquid oil (food grade vegetable, corn, soy or olive oil) in a single dose 10-20 μL/gram body weight. These oils were a source of TG—when absorbed TG tends to be broken down within 3 h (peak in 30 min) (Kritchevsky Nutritional Biochemistry 6:172-178, 1995). Blood samples (20-30 μL) were obtained from the retro-orbital plexus at time points: −1 h, 0 h, 1 h, 3 h, 6 h and 24 h for measurements of lipids. Mice were returned to metabolic cages after the 6 h time point where the food was put back. Once the study was completed (after 24 hours from the fat administration), mice were euthanized and organs collected.
The ability of apolipoprotein mimetic peptides to normalize hypertriglyceridemia in mice treated with an LPL inhibitor, Tyloxapol, in presence of high TG provided by 20% Intralipid, was assessed.
Mice were fasted overnight (approximately 12 hours) before the study and 6 hours during the study, the next day. The apo mimetic peptides were synthetically produced and free of biological contamination (not available as FDA approved compounds/treatment). Peptides were produced and used in sterile conditions and filtered by 0.2 nm filter before injections in a single dose 1-5 μmol/kg B.W. either S.C. or I.P. or I.V. (in a sterile, pharmaceutical grade PBS solution at a volume ≤200 μL). Next, 10% Tyloxapol (Triton WR-1339, T-0307, Sigma-Aldrich) was injected I.V. in a single dose of 5 μL/gram B.W., as described earlier (Zhang Y. L. et al., J Biol Chem. 279: 19362-19374, 2004; Abe C. et al., J. Nutr. 137: 345-350, 2007). […] Finally, each animal received 20% Intralipid (FDA approved, Fresenius Kabi, Uppsala, Sweden) in a single dose either by oral gavage (using special sterile single-use non-toxic animal feeding needles)—in a dose 10-20 μL/gram B.W. (Tuzcu K. et al., Drug Chem Toxicol., 37: 261-267, 2014, Kusminski C. et al., Nature Medicine. 18: 1539-1549, 2012), or by intraperitoneal injection—in a single bolus of 0.1-1.0 mL (Mahadero G. et al., American J Surgery. 164: 45-50, 1992). Blood samples (20-30 μL) were obtained from the retro-orbital plexus at time points: −1 h, 0 h, 1 h, 3 h, 6 h and 24 h for measurements of lipids. Mice were returned to metabolic cages after the 6 h time point where the food was put back. Once the study was completed (after 24 hours from the Intralipid administration), mice were euthanized and organs collected.

[2] = system: lipoproteins of human serum; assay: incubation of human serum with exogenous apoC-II-a; assay type: binding; conditions: doses comparable to that achieved in vivo in mice
LPL = target: T2, LPL (Bos taurus, UniProt P11151); assay: addition of exogenous LPL to serum samples collected after IP injection with Intralipid; assay type: biochemical
T2 sequence (P11151 29-478): T1 sequence (P11151 29-478)

[3] = system: VLDL isolated from human plasma; assay: ApoC-III displacement study in VLDL isolated from human plasma; assay type: binding
Description: VLDL or chylomicrons isolated from human plasma were incubated with an apoC-II mimetic peptide for 1 hour at 37° C. and washed 3 times with PBS using spin filter with 100 kDa cutoff membrane. […] ApoC-I, apoC-II, apoC-III, and apoE bands were identified by their corresponding size.

Row | Sequence | influence of pre-incubation of apoC-III with human plasma on peptide effect [1] | concentration at which it overcame the inhibitory effect of apoC-III ([1]; 50 μM apoC-III, FIG. 32) | concentration at which it started to affect lipolysis ([1]; 50 μM apoC-III, FIG. 32) [µM] | effect on inhibition of LPL by apoC-III [1] | effect on inhibition of LPL by apoC-III ([1]; listed as ApoC-II-a) | block of rise in serum TG after IP injection of Intralipid (wild-type mice; co-injected with the LPL inhibitor Triton WR1339) | binding to lipoproteins and apolipoprotein displacement [2] | lipoprotein particles from treated mice as substrates for LPL (LPL) | affinity for the VLDL compared with the apolipoproteins [3] | selectivity of apolipoprotein displacement ([3]; MALDI-TOF mass spectrometry, FIG. 29A) | binding of peptide to VLDL versus concentration ([3]; MALDI-TOF, FIG. 29B) | effect on inhibition of LPL by Triton (wild-type mice; FIG. 35B) | serum TG increase after Intralipid injection (wild-type mice; intraperitoneal peptide, presence or absence of Triton, FIG. 35B) | serum TG increase after Intralipid injection (wild-type mice; repeat-dose study, peptide IP 1 hour after Intralipid, 0.25 and 1 μmole/kg, FIG. 46B) | apoC-II displacement in VLDL ([3]; FIG. 49) | apoC-III displacement in VLDL ([3]; SDS PAGE)
1 | DWLKAFYDKVAEKLKEAFPAMSTYTGIFTDQVLSVLKGEE (listed as Homo sapiens) [apoC-II-a, excluded from the claimed peptides] | did not change the effect | about 0.2 μM | 0.01 | further facilitated lipolysis | overcomes the inhibition by apoC-III | about 50% | binds to all lipoproteins, including HDL and causes the displacement of apoC-I and apoC-III | better substrates for LPL | higher affinity for the VLDL than the apolipoproteins | selectively replaced apoC-III and apoC-I, but not apoC-II; also recorded: selectively displaces apoC-III and apoC-I but not apoC-II | almost proportional to its concentration; also recorded: approximately proportional to its concentration |  |  |  |  | 
2 | DYLKEVFEKLRDLYEKFTPAVSTYTGIFTDQVLSVLKGEE [Delta6PV] |  |  |  | overcomes the inhibition of apoC-III |  |  |  |  | higher affinity for the VLDL than the apolipoproteins |  |  | reversed the inhibition of LPL by Triton | the TG increase was significantly reduced | the TG increase was significantly reduced | also displaced | displaced apoC-III in a dose-dependent matter
